# Assay results reported in patent publication US20220251084A1, “PROGRANULIN MODULATORS AND METHODS OF USING THE SAME” (ARKUDA THERAPEUTICS, priority 2019, published 2022).
# Test system: progranulin (PGRN) secretion, BV-2 cells
# Experiment: PGRN assay: progranulin induction cellular assay (ELISA of secreted mouse PGRN)
# Type: cell-based
# Conditions: not given
# Experimental: Cellular Assays: To measure the efficacy of compounds, a progranulin induction cellular assay in mouse primary microglia (pMG), primary cortical neurons, and BV-2 cell lines is used. BV-2 cells are split the day before plating into a 96 well plate format at approximately 80%. Cells should be plated the day before and allowed for 1 hour attachment period and for 16 hour incubation. […] Standard ELISA kits to measure PGRN are available from vendors such as Adipogen, R&D, and Biovendor.
row,Compound,EC50 [µM]
1,"O=C(O[C@@H]1CN2CCC1CC2)N1CCc2cccnc2[C@@H]1c1ccc(F)cc1 [Compound 2054, (S)-quinuclidin-3-yl 8-(4-fluorophenyl)-5,6-dihydro-1,7-naphthyridine-7(8H)-carboxylate]",4.74
2,"O=C(O[C@@H]1CN2CCC1CC2)N1CCc2cccnc2[C@H]1c1ccc(F)cc1 [Compound 2055, (S)-quinuclidin-3-yl 8-(4-fluorophenyl)-5,6-dihydro-1,7-naphthyridine-7(8H)-carboxylate]",3.3

# Same assay, conditions: Mus musculus, BV-2
row,Compound,EC50 [µM]
1,CNC(=O)c1ccc2c(c1)[C@H](c1ccc(F)cc1)N(C(=O)O[C@@H]1CN3CCC1CC3)CC2 [Compound 2065],> 10
2,CNC(=O)c1ccc2c(c1)[C@@H](c1ccc(F)cc1)N(C(=O)O[C@@H]1CN3CCC1CC3)CC2 [Compound 2066],> 10
3,C#CCOc1ccc2c(c1)CCN(C(=O)O[C@@H]1CN3CCC1CC3)[C@H]2c1ccc(F)cc1 [Compound 2082],7.46
4,C#CCOc1ccc2c(c1)CCN(C(=O)O[C@@H]1CN3CCC1CC3)[C@@H]2c1ccc(F)cc1 [Compound 2083],6.07
5,COC(=O)c1ccc2c(c1)CCN(C(=O)O[C@@H]1CN3CCC1CC3)[C@H]2c1ccc(F)cc1 [Compound 2086],> 10
6,COC(=O)c1ccc2c(c1)CCN(C(=O)O[C@@H]1CN3CCC1CC3)[C@@H]2c1ccc(F)cc1 [Compound 2087],> 10
7,CNC(=O)c1ccc2c(c1)CCN(C(=O)O[C@@H]1CN3CCC1CC3)[C@H]2c1ccc(F)cc1 [Compound 2100],> 10
8,CNC(=O)c1ccc2c(c1)CCN(C(=O)O[C@@H]1CN3CCC1CC3)[C@@H]2c1ccc(F)cc1 [Compound 2101],> 10

# Same assay, conditions: Mus musculus, BV-2, PGRN assay, Table C; secreted mouse PGRN in cell culture medium, ELISA
row,Compound,EC50 [µM]
1,CN1CCS(=O)(=O)[C@H](CC(=O)N2CCc3ccccc3[C@@H]2c2ccc(F)cc2)C1 [Compound 2042],3.2
2,COC(=O)c1ccc2c(c1)[C@H](c1ccc(F)cc1)N(C(=O)OCC13CCN(CC1)CC3)CC2 [Compound 2044],4.71
3,COC(=O)c1ccc2c(c1)[C@@H](c1ccc(F)cc1)N(C(=O)OCC13CCN(CC1)CC3)CC2 [Compound 2045],> 10
4,COCCOCCOc1ccc(COc2ccc([C@H]3c4ccccc4CCN3C(=O)OCC34CCN(CC3)CC4)cc2)cc1 [Compound 2046],1.72
5,COCCOCCOc1ccc(COc2ccc([C@@H]3c4ccccc4CCN3C(=O)OCC34CCN(CC3)CC4)cc2)cc1 [Compound 2047],> 2.69
6,O=C(N[C@@H]1CCN2CCC[C@H]12)N1CCc2ccccc2[C@@H]1c1ccc(F)cc1 [Compound 2048],1.9
7,O=C(N[C@H]1CCN2CCC[C@H]12)N1CCc2ccccc2[C@@H]1c1ccc(F)cc1 [Compound 2050],3.9
8,O=C(N[C@H]1CCN2CCC[C@@H]12)N1CCc2ccccc2[C@@H]1c1ccc(F)cc1 [Compound 2051],> 10
9,"C#CCOc1ccc2c(c1)[C@H](c1ccc(F)cc1)N(C(=O)OCC13CCN(CC1)CC3)CC2 [Compound 2052, (S)-quinuclidin-4-ylmethyl 1-(4-fluorophenyl)-7-(prop-2-ynyloxy)-3,4-dihydroisoquinoline-2(1H)-carboxylate]",6.82
10,CS(=O)(=O)c1ccc2c(c1)[C@H](c1ccc(F)cc1)N(C(=O)N[C@@H]1CN3CCC1CC3)CC2 [Compound 2056],> 10
11,CS(=O)(=O)c1ccc2c(c1)[C@@H](c1ccc(F)cc1)N(C(=O)N[C@@H]1CN3CCC1CC3)CC2 [Compound 2057],> 10
12,"O=S(=O)(CCC12CCN(CC1)CC2)N1CCc2ccccc2[C@@H]1c1ccc(F)cc1 [Compound 2058, (S)-4-(2-(1-(4-fluorophenyl)-3,4-dihydroisoquinolin-2(1H)-ylsulfonyl)ethyl)quinuclidine]",3
13,CNC(=O)c1ccc2c(c1)[C@H](c1ccc(F)cc1)N(C(=O)OCC13CCN(CC1)CC3)CC2 [Compound 2059],> 10
14,CNC(=O)c1ccc2c(c1)[C@@H](c1ccc(F)cc1)N(C(=O)OCC13CCN(CC1)CC3)CC2 [Compound 2060],> 10
15,C#CCOc1ccc2c(c1)CCN(C(=O)N[C@@H]1CN3CCC1CC3)[C@H]2c1ccc(F)cc1 [Compound 2063],> 10
16,C#CCOc1ccc2c(c1)CCN(C(=O)N[C@@H]1CN3CCC1CC3)[C@@H]2c1ccc(F)cc1 [Compound 2064],> 10
17,"CN1C2COCC1CC(OC(=O)N1CCc3ccccc3[C@@H]1c1ccc(F)cc1)C2 (stereo partly drawn) [Compound 2067, (1 S)-9′-methyl-3′-oxa-9′-azabicyclo[3.3.1]nonan-7′-yl-1-(4-fluorophenyl)-3,4-dihydroisoquinoline-2(1H)-carboxylate]",0.24
18,COC(=O)c1ccc2c(c1)CCN(C(=O)NCC13CCN(CC1)CC3)[C@H]2c1ccc(F)cc1 [Compound 2068],3.37
19,COC(=O)c1ccc2c(c1)CCN(C(=O)NCC13CCN(CC1)CC3)[C@@H]2c1ccc(F)cc1 [Compound 2069],4.13
20,CNC(=O)c1ccc2c(c1)CCN(C(=O)NCC13CCN(CC1)CC3)[C@H]2c1ccc(F)cc1 [Compound 2070],3.62
21,CNC(=O)c1ccc2c(c1)CCN(C(=O)NCC13CCN(CC1)CC3)[C@@H]2c1ccc(F)cc1 [Compound 2071],3.72
22,COC(=O)c1ccc2c(c1)CCN(C(=O)OCC13CCN(CC1)CC3)[C@H]2c1ccc(F)cc1 [Compound 2072],8.08
23,COC(=O)c1ccc2c(c1)CCN(C(=O)OCC13CCN(CC1)CC3)[C@@H]2c1ccc(F)cc1 [Compound 2073],> 10
24,"O=C(C(O)[C@@H]1CN2CCC1CC2)N1CCc2ccccc2[C@@H]1c1ccc(F)cc1 (stereo partly drawn) [Compound 2074, 1-((S)-1-(4-fluorophenyl)-3,4-dihydroisoquinolin-2(1H)-yl)-2-hydroxy-2-(quinuclidin-3-yl)ethanone]",3.4

row,Compound,EC50 [µM]
1,C#CCOc1ccc2c(c1)CCN(C(=O)OCC13CCN(CC1)CC3)[C@H]2c1ccc(F)cc1 [Compound 2078],5.35
2,C#CCOc1ccc2c(c1)CCN(C(=O)OCC13CCN(CC1)CC3)[C@@H]2c1ccc(F)cc1 [Compound 2079],4.83
3,CNC(=O)c1ccc2c(c1)CCN(C(=O)OCC13CCN(CC1)CC3)[C@H]2c1ccc(F)cc1 [Compound 2080],> 10
4,CNC(=O)c1ccc2c(c1)CCN(C(=O)OCC13CCN(CC1)CC3)[C@@H]2c1ccc(F)cc1 [Compound 2081],> 10
5,C#CCOc1ccc2c(c1)CCN(C(=O)NCC13CCN(CC1)CC3)[C@H]2c1ccc(F)cc1 [Compound 2084],> 10
6,C#CCOc1ccc2c(c1)CCN(C(=O)NCC13CCN(CC1)CC3)[C@@H]2c1ccc(F)cc1 [Compound 2085],4.99
7,COC(=O)c1ccc2c(c1)CCN(C(=O)N[C@@H]1CN3CCC1CC3)[C@@H]2c1ccc(F)cc1 [Compound 2089],> 10
8,CNC(=O)c1ccc2c(c1)CCN(C(=O)N[C@@H]1CN3CCC1CC3)[C@H]2c1ccc(F)cc1 [Compound 2090],> 10
9,CNC(=O)c1ccc2c(c1)CCN(C(=O)N[C@@H]1CN3CCC1CC3)[C@@H]2c1ccc(F)cc1 [Compound 2091],> 10
10,O=C(OCC12CCN(CC1)CC2)N1CCc2ccccc2[C@@H]1c1ccc(F)cc1F [Compound 2096],0.387
11,O=C(N[C@@H]1CN2CCC1CC2)C(=O)N1CCc2ccccc2[C@@H]1c1ccc(F)cc1 [Compound 2104],1.61
12,CN1CCC(COC(=O)N2CCc3ccccc3[C@@H]2c2ccc(F)cc2F)CC1 [Compound 2105],1.07
13,O=C(OCC1CCN(CC(F)(F)F)CC1)N1CCc2ccccc2[C@@H]1c1ccc(F)cc1 [Compound 2107],> 10
14,CN1CCC(COC(=O)N2CCc3ccccc3[C@@H]2c2cc(F)cc(F)c2)CC1 [Compound 2108],> 3.16
15,CN1CCC(COC(=O)N2CCc3ccccc3[C@H]2c2cc(F)cc(F)c2)CC1 [Compound 2109],> 10
16,O=C(OCC12CCN(CC1)CC2)N1CCc2ccccc2[C@@H]1c1ccc(F)c(F)c1 [Compound 2110],7.82
17,O=C(OCC12CCN(CC1)CC2)N1CCc2ccccc2[C@H]1c1ccc(F)c(F)c1 [Compound 2111],0.635
18,O=C(OCC12CCN(CC1)CC2)N1CCc2ccccc2[C@@H]1c1cccc(F)c1F [Compound 2112],8.27
19,O=C(OCC12CCN(CC1)CC2)N1CCc2ccccc2[C@H]1c1cccc(F)c1F [Compound 2113],0.596
20,CN1CCC(F)(COC(=O)N2CCc3ccccc3[C@@H]2c2ccc(F)cc2)CC1 [Compound 2114],0.401
21,"C#CCOc1ccc2c(c1)[C@H](c1ccc(F)cc1)N(C(=O)N[C@@H]1CN3CCC1CC3)CC2 [Compound 2115, (S)-1-(4-fluorophenyl)-7-(prop-2-yn-1-yloxy)-N—((S)-quinuclidin-3-yl)-3,4-dihydroisoquinoline-2(1H)-carboxamide]",8.37
22,"COC(=O)c1ccc2c(c1)[C@H](c1ccc(F)cc1)N(C(=O)N[C@@H]1CN3CCC1CC3)CC2 [Compound 2116, methyl (S)-1-(4-fluorophenyl)-2-(((S)-quinuclidin-3-yl)carbamoyl)-1,2,3,4-tetrahydroisoquinoline-7-carboxylate]",> 10
23,"COC(=O)c1ccc2c(c1)[C@H](c1ccc(F)cc1)N(C(=O)NCC13CCN(CC1)CC3)CC2 [Compound 2117, methyl (S)-1-(4-fluorophenyl)-2-((quinuclidin-4-ylmethyl)carbamoyl)-1,2,3,4-tetrahydroisoquinoline-7-carboxylate]",> 10

# Same assay, conditions: PGRN assay, Table C; secreted mouse PGRN in cell culture medium, ELISA
row,EC50 [µM],Compound
1,3.17,CN1CCC(COC(=O)N2CCc3ccccc3[C@@H]2c2ccc(F)cc2)CC1 [Compound 2095]
2,2.82,O=C(OC1[C@@H]2CC3C[C@@H]1CN(C3)C2)N1CCc2ccccc2[C@@H]1c1ccc(F)cc1 (stereo partly drawn) [Compound 2097]
3,0.339,O=C(OC1[C@@H]2CC3C[C@@H]1CN(C3)C2)N1CCc2ccccc2[C@@H]1c1ccc(F)cc1 (stereo partly drawn) [Compound 2098]
